# How the values were obtained:
# E. coli MTAN = E. coli MTAN (Escherichia coli, UniProt P0AF12); test: Inhibition of E. coli MTAN, xanthine oxidase-coupled enzyme assay; type: biochemical; conditions: Km of MTA over Ki of the inhibitor
# human MTAP = target: T1, human MTAP (Homo sapiens, UniProt Q13126); type: biochemical; conditions: for Km/Ki ratio for human MTAP: Km of MTA over Ki of the inhibitor
# T1 sequence (Q13126 1-283): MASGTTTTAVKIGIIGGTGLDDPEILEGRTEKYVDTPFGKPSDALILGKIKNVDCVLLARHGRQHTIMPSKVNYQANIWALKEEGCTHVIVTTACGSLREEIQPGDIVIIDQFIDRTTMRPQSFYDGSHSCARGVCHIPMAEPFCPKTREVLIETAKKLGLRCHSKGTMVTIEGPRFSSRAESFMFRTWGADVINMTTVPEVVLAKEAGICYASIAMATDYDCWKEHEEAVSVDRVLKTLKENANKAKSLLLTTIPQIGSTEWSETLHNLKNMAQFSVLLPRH
# Chain of E. coli MTAN (P0AF12 whole entry): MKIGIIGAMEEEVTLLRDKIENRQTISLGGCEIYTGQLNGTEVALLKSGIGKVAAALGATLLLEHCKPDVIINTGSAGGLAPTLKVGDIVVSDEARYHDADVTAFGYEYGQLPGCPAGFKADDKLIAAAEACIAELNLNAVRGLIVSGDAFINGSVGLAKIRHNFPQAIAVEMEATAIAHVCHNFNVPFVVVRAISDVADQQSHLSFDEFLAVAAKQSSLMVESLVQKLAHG
Compound,Km/Ki ratio for E. coli MTAN (E. coli MTAN),Km/Ki ratio for human MTAP (human MTAP),"Better competitor for the catalytic site of human MTAP than for E. coli MTAN, factor (human MTAP; from the Km/Ki ratios)"
"C=C[C@H]1CN(Cc2c[nH]c3c(N)ncnc23)C[C@@H]1O (racemic) [(±)-40, (±)-trans-1-[(9-Deaza-adenin-9-yl)methyl]-3-hydroxy-4-vinylpyrrolidine]",662,1649,
"CC[C@H]1CN(Cc2c[nH]c3c(N)ncnc23)C[C@@H]1O (racemic) [(±)-28, (±)-trans-1-[(9-Deaza-adenin-9-yl)methyl]-4-ethyl-3-hydroxypyrrolidine]",512,,6
"C=CC[C@H]1CN(Cc2c[nH]c3c(N)ncnc23)C[C@@H]1O (racemic) [(±)-41, (±)-trans-4-Allyl-1-[(9-deaza-adenin-9-yl)methyl]-3-hydroxypyrrolidine]",1228,1759,
"Nc1ncnc2c(CN3C[C@H](CCCSCc4ccccc4)[C@@H](O)C3)c[nH]c12 (racemic) [(±)-57, (±)-trans-4-[3-(Benzylthio)propyl]-1-[(9-deaza-adenin-9-yl)methyl]-3-hydroxypyrrolidine]",7963,74,
